Here are results for 19 compounds from patent publication US9399649B2, “Compounds for treating spinal muscular atrophy” (PTC Therapeutics Inc., priority 2012, dated 2016).

A word on the melting point: it is the temperature of the solid-liquid transition.

Bounds are passed on as bounds.

Data set [1] deals with full length SMN2 minigene mRNA containing SMN2 exon 7. Kind of data set: SMN2 minigene mRNA splicing RT-qPCR assay in cultured cells. Format: cell-based, human. The following applies: Homo sapiens, HEK293-H; HEK293H cells stably transfected with SMN2-A minigene, 24 hours, 7-point concentration curve; concentration giving 1.5-fold full length SMN2 mRNA vs vehicle; read-out: EC1.5x for production of full length SMN2 mRNA. The gist of the method:
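HEK293H cells stably carrying SMN2-A minigene treated 24 h (37 °C) with compound, 7-point 3.16-fold dilution, duplicates. Multiplex RT-qPCR on lysate with exon 7/luciferase primers and exon 7–8 junction probe (minigene-specific). Full-length transcript normalised to GAPDH by modified ΔΔCt, expressed relative to vehicle-treated cells.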
On the technique in general: In qPCR the cycle at which signal appears reflects the starting amount.

The test system of data set [2] is Smn protein. Kind of data set: Smn protein assay in cultured cells (SMN HTRF). In kind it is cell-based, human. The note with it: SMA patient fibroblast cells (GM03813), 48 hours; for EC1.5x for Smn protein expression: 7-point concentration curve, concentration producing 1.5 times Smn protein vs DMSO vehicle; for maximum fold (Fold) increase of Smn protein: 7-point concentration data, relative to vehicle control. The method in brief:
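SMA patient fibroblasts, 5,000 per well in DMEM-10% FBS, exposed 48 h at 37° C. to a 7-point, 3.16-fold compound series in triplicate. RIPA lysates read by SMN HTRF (665/620 nm, overnight at room temperature); ΔF over blank expressed as fold of vehicle.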

In turn, `CCN1CCN(c2ccc3cc(-c4cc5c(C)nc(C)cn5c4)oc(=O)c3c2)CC1` [Cpd 77, 3-(1,3-dimethylpyrrolo[1,2-a]pyrazin-7-yl)-7-(4-ethylpiperazin-1-yl)-1H-isochromen-1-one] yielded a melting point of 202 to 204 °C. Further, the EC (1.5-fold) in data set [1] is ≤ 0.1 µM. Also, in data set [2], the “EC1.5x for Smn protein expression” value was “*** (an EC1.5× between >0.3 nM and ≦1 nM is indicated by three stars (***))”; the “maximum fold (Fold) increase of Smn protein” value (from here on “maximum fold (Fold) increase”) is “*** (a fold increase between >1.35 and ≦1.5 is indicated by three stars (***))”.

Regarding `CN1CCN(c2ccc3cc(-c4cn5cccc(Cl)c5n4)oc(=O)c3c2)CC1` [Cpd 61, 3-(8-chloroimidazo[1,2-a]pyridin-2-yl)-7-(4-methylpiperazin-1-yl)-1H-isochromen-1-one], the melting point is 240 °C (dec.). In data set [1], the EC (1.5-fold) was 1 to 3 µM. Besides, the “maximum fold (Fold) increase” value in data set [2] was “* (A maximum fold increase of ≦1.2 is indicated by one star (*))”.

In turn, `COCCN1CCN(c2ccc3cc(-c4cn5cc(C)nc(C)c5n4)oc(=O)c3c2)CC1` [Cpd 85, 3-(6,8-dimethylimidazo[1,2-a]pyrazin-2-yl)-7-[4-(2-methoxyethyl)piperazin-1-yl]-1H-isochromen-1-one] gave a melting point of 192 to 194 °C. In addition, the EC (1.5-fold) in data set [1] was in the range of 0.1 to 0.3 µM. In addition, in data set [2], the “EC1.5x for Smn protein expression” value is “*** (an EC1.5× between >0.3 nM and ≦1 nM is indicated by three stars (***))”; the “maximum fold (Fold) increase” value is reported as “***** (a fold increase >1.65 is indicated by five stars (*****))”.

In turn, `C[C@H]1CN(c2ccc3cc(-c4ccc(OC(F)F)cc4)oc(=O)c3c2)CCN1` [Cpd 54, 3-[4-(difluoromethoxy)phenyl]-7-[(3S)-3-methylpiperazin-1-yl]-1H-isochromen-1-one] returned a melting point of 121 to 123 °C. Besides, the EC (1.5-fold) in data set [1] lay within 0.3 to 1 µM. Also, the “maximum fold (Fold) increase” value in data set [2] was “* (A maximum fold increase of ≦1.2 is indicated by one star (*))”.

In the case of `O=c1oc(-c2ccc3c(c2)OCO3)cc2ccc(N3CCNCC3)cc12` [Cpd 12, 3-(1,3-benzodioxol-5-yl)-7-(piperazin-1-yl)-1H-isochromen-1-one], the melting point was in the range of 267 to 269 °C. The EC (1.5-fold) in data set [1] fell in the range of 0.3 to 1 µM. Further, the “maximum fold (Fold) increase” value in data set [2] was “** (a fold increase between >1.2 and ≦1.35 is indicated by two stars (**))”.

Compound `O=c1oc(-c2cn3ccsc3n2)cc2ccc(N3CCNCC3)cc12` [Cpd 28, 3-(imidazo[2,1-b][1,3]thiazol-6-yl)-7-(piperazin-1-yl)-1H-isochromen-1-one] displayed a melting point of 224 to 226 °C. The EC (1.5-fold) in data set [1] was in the range of 0.3 to 1 µM. Moreover, the “maximum fold (Fold) increase” value in data set [2] was “*** (a fold increase between >1.35 and ≦1.5 is indicated by three stars (***))”.

On to `COc1ccc(-c2cc3ccc(N4CCN[C@@H](C)C4)cc3c(=O)o2)cc1` [Cpd 31, 3-(4-methoxyphenyl)-7-[(3S)-3-methylpiperazin-1-yl]-1H-isochromen-1-one], for which the melting point is 129 to 131 °C. Moreover, the EC (1.5-fold) in data set [1] was ≤ 0.1 µM. For the same compound, in data set [2], the “EC1.5x for Smn protein expression” value was “** (an EC1.5× between >1 μM, and ≦3 nM is indicated by two stars (**))”; the “maximum fold (Fold) increase” value was “**** (a fold increase between >1.5 and ≦1.65 is indicated by four stars (****))”.

As to `Cc1nc(Cl)cn2cc(-c3cc4ccc(N5CCN(C)CC5)cc4c(=O)o3)nc12` [Cpd 100, 3-(6-chloro-8-methylimidazo[1,2-a]pyrazin-2-yl)-7-(4-methylpiperazin-1-yl)-1H-isochromen-1-one], the melting point was in the range of 291 to 296 °C. In addition, the EC (1.5-fold) in data set [1] is ≤ 0.1 µM. In data set [2], the “EC1.5x for Smn protein expression” value was “*** (an EC1.5× between >0.3 nM and ≦1 nM is indicated by three stars (***))”; the “maximum fold (Fold) increase” value is “***** (a fold increase >1.65 is indicated by five stars (*****))”.

`Cc1cn2cc(-c3cc4ccc(C5=CCN(C6CC6)CC5)cc4c(=O)o3)nc2c(C)n1` [Cpd 93, 7-(1-cyclopropyl-1,2,3,6-tetrahydropyridin-4-yl)-3-(6,8-dimethylimidazo[1,2-a]pyrazin-2-yl)-1H-isochromen-1-one] had a melting point of 230 to 232 °C. Also, the EC (1.5-fold) in data set [1] is ≤ 0.1 µM. In data set [2], the “EC1.5x for Smn protein expression” value was “**** (an EC1.5×≦0.3 nM is indicated by four stars (****))” and the “maximum fold (Fold) increase” value is “***** (a fold increase >1.65 is indicated by five stars (*****))”.

For the compound `COc1ccc(-c2cc3ccc(N4C[C@@H](C)N[C@@H](C)C4)cc3c(=O)o2)cc1OC` [Cpd 17, 3-(3,4-dimethoxyphenyl)-7-[(3R,5S)-3,5-dimethylpiperazin-1-yl]-1H-isochromen-1-one], the melting point was 309 to 311 °C. Besides, the EC (1.5-fold) in data set [1] lay within 0.3 to 1 µM. Further, in data set [2], the “maximum fold (Fold) increase” value is “*** (a fold increase between >1.35 and ≦1.5 is indicated by three stars (***))”.

Compound `CN1CCN(c2ccc3cc(-c4cn5ccsc5n4)oc(=O)c3c2)CC1` [Cpd 33, 3-(imidazo[2,1-b][1,3]thiazol-6-yl)-7-(4-methylpiperazin-1-yl)-1H-isochromen-1-one] gave a melting point of 236 to 238 °C. Moreover, the EC (1.5-fold) in data set [1] was in the range of 1 to 3 µM. In addition, the “maximum fold (Fold) increase” value in data set [2] was “* (A maximum fold increase of ≦1.2 is indicated by one star (*))”.

For the compound `COc1ccc(-c2cc3ccc(N4CCN[C@@H](C)C4)cc3c(=O)o2)cc1Cl` [Cpd 46, 3-(3-chloro-4-methoxyphenyl)-7-[(3S)-3-methylpiperazin-1-yl]-1H-isochromen-1-one], the melting point fell in the range of 187 to 189 °C. Further, in data set [1], the EC (1.5-fold) fell in the range of 0.1 to 0.3 µM. Also, in data set [2], the “EC1.5x for Smn protein expression” value is “*** (an EC1.5× between >0.3 nM and ≦1 nM is indicated by three stars (***))”; the “maximum fold (Fold) increase” value was “**** (a fold increase between >1.5 and ≦1.65 is indicated by four stars (****))”.

`Cc1cn2cc(-c3cc4ccc(N5CCN(C(C)C)[C@H](C)C5)cc4c(=O)o3)nc2c(C)n1` [Cpd 144, 3-(6,8-dimethylimidazo[1,2-a]pyrazin-2-yl)-7-[(3R)-3-methyl-4-(propan-2-yl)piperazin-1-yl]-1H-isochromen-1-one] showed a melting point of 262 to 267 °C. Also, the EC (1.5-fold) in data set [1] is ≤ 0.1 µM. Besides, in data set [2], the “EC1.5x for Smn protein expression” value is recorded as “**** (an EC1.5×≦0.3 nM is indicated by four stars (****))” and the “maximum fold (Fold) increase” value is “***** (a fold increase >1.65 is indicated by five stars (*****))”.

In turn, `CCc1nc(C)cn2cc(-c3cc4ccc(N5CCN[C@H](C)C5)cc4c(=O)o3)nc12` [Cpd 153, 3-(8-ethyl-6-methylimidazo[1,2-a]pyrazin-2-yl)-7-[(3R)-3-methylpiperazin-1-yl]-1H-isochromen-1-one] showed a melting point of 208 to 213 °C. Moreover, in data set [1], the EC (1.5-fold) was ≤ 0.1 µM. In data set [2], the “EC1.5x for Smn protein expression” value is given as “**** (an EC1.5×≦0.3 nM is indicated by four stars (****))” and the “maximum fold (Fold) increase” value is “***** (a fold increase >1.65 is indicated by five stars (*****))”.

Consider `COc1ccc(-c2cc3ccc(N4C[C@@H](C)N[C@@H](C)C4)cc3c(=O)o2)cc1` [Cpd 29, 7-[(3R,5S)-3,5-dimethylpiperazin-1-yl]-3-(4-methoxyphenyl)-1H-isochromen-1-one], for which the melting point is 109 to 110 °C. Also, the EC (1.5-fold) in data set [1] was in the range of 0.3 to 1 µM. In addition, in data set [2], the “maximum fold (Fold) increase” value was “* (A maximum fold increase of ≦1.2 is indicated by one star (*))”.

On to `Cc1cn2cc(-c3cc4ccc(N5C[C@@H](C)N(CCO)[C@@H](C)C5)cc4c(=O)o3)nc2cn1` [Cpd 130, 7-[(3R,5S)-4-(2-hydroxyethyl)-3,5-dimethylpiperazin-1-yl]-3-(6-methylimidazo[1,2-a]pyrazin-2-yl)-1H-isochromen-1-one], for which the melting point lay within 241 to 245 °C. In addition, the EC (1.5-fold) in data set [1] was ≤ 0.1 µM. In addition, in data set [2], the “EC1.5x for Smn protein expression” value was “**** (an EC1.5×≦0.3 nM is indicated by four stars (****))”; the “maximum fold (Fold) increase” value was “**** (a fold increase between >1.5 and ≦1.65 is indicated by four stars (****))”.

As to `C[C@H]1CN(c2ccc3cc(-c4ccc5c(c4)OCCO5)oc(=O)c3c2)CCN1` [Cpd 35, 3-(2,3-dihydro-1,4-benzodioxin-6-yl)-7-[(3S)-3-methylpiperazin-1-yl]-1H-isochromen-1-one], the melting point lay within 175 to 177 °C. Further, the EC (1.5-fold) in data set [1] is 0.3 to 1 µM. Besides, the “maximum fold (Fold) increase” value in data set [2] is “* (A maximum fold increase of ≦1.2 is indicated by one star (*))”.

Compound `COc1cc(-c2cc3ccc(N4CCN[C@@H](C)C4)cc3c(=O)o2)ccc1F` [Cpd 47, 3-(4-fluoro-3-methoxyphenyl)-7-[(3S)-3-methylpiperazin-1-yl]-1H-isochromen-1-one] gave a melting point of 118 to 120 °C. The EC (1.5-fold) in data set [1] was 3 to 30 µM. In addition, the “maximum fold (Fold) increase” value in data set [2] is “* (A maximum fold increase of ≦1.2 is indicated by one star (*))”.

The compound `CCc1nc(C)cn2cc(-c3cc4ccc(N5C[C@@H](C)N[C@@H](C)C5)cc4c(=O)o3)nc12` [Cpd 154, 7-[(3R,5S)-3,5-dimethylpiperazin-1-yl]-3-(8-ethyl-6-methylimidazo[1,2-a]pyrazin-2-yl)-1H-isochromen-1-one] returned a melting point of 239 to 244 °C. Also, the EC (1.5-fold) in data set [1] was ≤ 0.1 µM. Moreover, in data set [2], the “EC1.5x for Smn protein expression” value is reported as “**** (an EC1.5×≦0.3 nM is indicated by four stars (****))” and the “maximum fold (Fold) increase” value is “***** (a fold increase >1.65 is indicated by five stars (*****))”.
